Test results published in patent US20040167226A1, “Methods for the treatment of pain and traumatic injury using benzamides and compositions containing the same” (priority 2002, published 2004).
Entries after “also recorded” stand apart in the source; their conditions may differ.

Key:
[1] = Brain-blood distribution of Compound A in the rat; type: in vivo; conditions: brain / whole blood, single po dose 30 mg/kg, n = 5, read-out: Brain/Blood Ratio (Mean ± SD)
Description: (§1) Blood-brain distribution of Compound A was assessed in the mouse, rat, and squirrel monkey by determining the concentrations of Compound A in blood and brain tissue at specific times post dose. Rats and mice received a single po dose of 30 mg/kg. The monkeys received a twice-daily 10 mg/kg po dose of Compound A for a total of 5 weeks prior to sacrifice. Brain to blood ratios for Compound A, as shown below in Table 4, show high penetration of the blood-brain barrier.

[2] = Solubility of Compound A in dosing vehicles; type: physicochemical
Description: PEG-200 formulation for i.p. administration of Compound A: PEG-200 was diluted in deionized destilled water to give a final concentration of 75% (volume/volume). Compound A was weighed to yield a final concentration of 10 mg/ml in 75% PEG-200 vehicle and sonicated for 12×30 seconds with 5 second intervals on ice to generate a Compound A suspension. 100 μL of either Compound A suspension or control vehicle (75% PEG-200) per 20 grams of mice (body weight) was administered via i.p., thus yielding a dose of 50 mg/kg (body weight).
Cremophor EL/alcohol/saline formulation for i.p. administration of Compound A: 40 mg/ml, 20 mg/ml or 10 mg/ml of Compound A was dissolved in Cremophor EL/alcohol (90:10) (volume:volume), respectively, by brief sonication on ice, then freshly diluted 10-fold in saline solution (9% Cremophor EL; 1% ETOH and 90% saline) to give a final concentration of 4 mg/ml, 2 mg/ml and 1 mg/ml, respectively, before injection. 100 μL of Compound A solution at a concentration of […] was administered via i.p. to mice (per 20 grams of body weight), thus yielding a dose of 20 mg/kg (body weight), 10 mg/kg (body weight), and 5 mg/kg (body weight), respectively. The control vehicle was 9% Cremophor EL/1% ETOH/90% saline. […]

[3] = Brain-blood distribution of Compound A in the squirrel monkey; type: in vivo; conditions: brain / whole blood, twice-daily 10 mg/kg po for 5 weeks, 24 h post-dose, n = 12, read-out: Brain/Blood Ratio (Mean ± SD)
Description: as §1

[4] = tested on: Taxol-induced mechanical allodynia; experiment: Taxol-induced neuropathic pain mouse model, von Frey filament paw withdrawal; type: in vivo, C57B16 mice; conditions: mice
Description: C57B16 male mice were preconditioned (trained) in the enclosure one hour per day in the morning for one week prior to the baseline measurement. The baseline response to the mechanical stimulus was measured using a von Frey filament with 0.6 gram of force (von Frey number 3.84). Briefly, the von Frey filament, was applied to the plantar area of the right hind paw of mouse. The frequency of paw withdrawal was calculated in terms of percentage response, where the higher percentage indicates more pain, whereas the lower the percentage indicates less pain. Based on past experience with the C57B16 strain of adult male mice, animals with baseline no greater than 40% of response were included in further studies, while those with greater than 40% of paw withdrawal response to this particular force of stimulus, known as spontaneous mechanical allodynia, were discarded from these studies. The paw withdrawal behavior includes, licking the stimulated paw, vigorously shaking the paw and active avoidance upon application of innocuous mechanical stimuli. For those mice without spontaneous mechanical allodynia, Taxol was administered to the mice daily, 5 days a week, for longer than a one week period. Generally, mice treated with daily i.p. administration of 1 mg/kg (body weight) of Taxol develop relatively stable mechanical allodynia, neuropathic pain, on day 9 and thereafter. Prior to compound A administration, the responses of mice to 0.6 gram of von Frey filament were measured for two consecutive days in the morning. Only those mice with paw withdrawal response to this particular von Frey filament stimulus no less than 60%, counted as mechanical allodynia, were included for later testing with the compounds of interest.
Five-week old, male C57B1/6 mice were purchased from Charles River and housed at the Renovis animal facility in South San Francisco. Mice were trained for one week in an enclosure made of Plexiglas with dimensions of 2 in×2.5 in×3.5 in (W, H, and L) with a meshed metal support. The baseline of response to mechanical stimulus was measured using a von Frey Filament (0.6 g=3.84 mN). Normally, the baseline response is between 0 to 40%.
Taxol was dissolved (1 mg/ml) in 50% Cremophor EL and 50% alcohol, and freshly diluted with saline to the final concentration of 0.2 mg/ml in 10% Cremophor EL, 10% alcohol. Mice were administered Taxol at 1 mg/kg of body weight, via ip daily, while the animals of the control group received vehicle (10% Cremophor EL and 10% alcohol in saline).
Five-week old C57B1/6 male mice were trained for one week in the von Frey filament test, and baseline response (percent paw withdrawal over 40 tests) to a von Frey filament (0.6 gram=3.84 mN) was measured (average shown in the graph as “baseline (mean)”=31%).
Trained mice were treated with 1 mg/kg (body weight) taxol in 10% Cremophor EL/10% ethanol via ip injection daily through the end of the experiment in order to induce the neuropathic pain state.
The percent pain response (percent paw withdrawal over 40 tests) with a von Frey filament (0.6 gram=3.84 mN) was measured at day 8 and day 9 after pain induction (average of these two shown in the graph as “pre-dosing (mean)”=75%). Those animals with either sensitive baseline (>40% response) or without pain (<60% response) after 9 days of taxol injection were not included in the data analysis. Animals receiving this daily dose of Taxol will develop neuropathic pain.
[…] The animals were then placed in the enclosure for assay. Mechanical allodynia was measured with von Frey filament (0.6 g=3.84 mN) at various times after administration.
Nine taxol-treated animals received […] vehicle (75% polyethylene glycol (PEG)) via ip injection; 8 taxol-treated animals were injected ip with a suspension of Compound A in vehicle at dose of 50 mg/kg (body weight). […]

[5] = PK parameter estimates, 30 mg/kg po in 1% methyl cellulose; type: in vivo, rats
Text: The time course of plasma concentration of compound N is depicted in FIG. 1 as well.

[6] = rat, plasma, rats, 30 mg/kg po in 1% methyl cellulose, n = 3

## CC(=O)Nc1ccc(C(=O)NC(C)(C)C)cc1 [Compound A, N-tert-butyl-4-acetamidobenzamide]
[1]; 0.5 h post-dose
  Kp at 0.5 h: 0.71 ± 0.03
[1]; 1.0 h post-dose
  Kp at 1 h: 0.66 ± 0.02
[1]; 2.0 h post-dose
  Kp at 2 h: 0.67 ± 0.03
[2]; 9% Cremophor EL, 1% ETOH, 90% saline vehicle
  solubility in 9% Cremophor EL, 1% ETOH and 90% saline: quite soluble
[2]; 75% PEG-200 vehicle
  solubility in 75% PEG-200: not soluble
[3]
  Kp at 24 h: 0.88 ± 0.09
[4]; 5 mg/kg/per day and 10 mg/kg/per day i.p., one dose per day, Cremophor EL/ETOH/saline
  mechanical allodynia under chronic dosing vs vehicle control: less mechanical allodynia
[4]; 10 mg/kg i.p. in Cremophor EL/ETOH/saline, 3-hour postdosing, +/-SEM
  percentage response to 0.6 gram von Frey filament: 40+/−10.9%
[4]; 10 mg/kg i.p. in Cremophor EL/ETOH/saline, 6-hour postdosing, +/-SEM
  percentage response to 0.6 gram von Frey filament: 42+/−95%
[4]; 10 mg/kg/per day i.p., Cremophor EL/ETOH/saline
  pain under chronic dosing: much less pain
[4]; 20 mg/kg i.p. in Cremophor EL/ETOH/saline, 3-hours postdosing, not statistically significant (p 0.08)
  percentage response to 0.6 gram von Frey filament: 59+/−8.1%
[4]; 50 mg/kg i.p. single dose in 75% PEG-200, 50 mg/kg
  analgesic effect on Taxol-induced pain (in words): has activity preventing Taxol-induced pain; also recorded: strong analgesic effect
[4]; 50 mg/kg i.p. single dose in 75% PEG-200, 1-hour postdosing, +/-SEM
  percentage of paw withdraw response to 0.6 gram von Frey filament: 20+/−7.6%
[4]; 50 mg/kg i.p. single dose in 75% PEG-200, 2-hour postdosing (so in the source), +/-SEM
  percentage of paw withdraw response to 0.6 gram von Frey filament: 32.5+/−13.1%
[4]; 50 mg/kg i.p. single dose in 75% PEG-200, 24-hour postdosing, +/-SEM
  percentage of paw withdraw response to 0.6 gram von Frey filament: 50+/−9.3%
[4]; 50 mg/kg i.p. single dose in 75% PEG-200, 48-hour postdosing, +/-SEM
  percentage of paw withdraw response to 0.6 gram von Frey filament: 65+/−6.3%
[4]; 5 and 10 mg/kg i.p. in Cremophor EL/ETOH/saline
  time of peak analgesic efficacy post dosing: 3 h
[4]; 5 and 10 mg/kg/per day i.p. chronic dosing
  drug tolerance or drug accumulation under chronic dosing: no significant drug tolerance or drug accumulation effects
[5]; additional series of bioavailability experiments
  bioavailability (in words): excellent bioavailability
[5]; [6]
  AUC(0-inf): 745 µg·h/mL
  Cmax: 34000 ng/mL
  Tmax: 8 h
[5]; rat, plasma, rats, 30 mg/kg po in 1% methyl cellulose, n = 3, read-out: Elim.t1/2 (converted)
  half-life: 11 h
